From patent publication US9642854B2, “Flavanoid compounds and process for preparation thereof” (Council of Scientific & Industrial Research, priority 2009, dated 2017)
Values after ≈ are worked out from the molar mass of the structure shown. Read-outs that look alike come from different tables or passages of the source.

Assays:
[1] = system: H. pylori; assay: Anti H. pylori screening by disc diffusion susceptibility assay; format: cell-based, Helicobacter pylori; conditions: for Inhibition zone diameter (score): 100 and 200 mg/disc (so in the source); for Inhibition zone diameter (score) / zone of inhibition at 100 µg/disc: 72 h; for zone of inhibition at 100 µg/disc: Helicobacter pylori, 100 and 200 μg/disc, majority of the strains, read-out: Activity class by inhibition zone diameter
Description: The discs were impregnated with […] of each of the compounds, dissolved either in ethanol or DMSO, and the zone of inhibition was measured after 72 h of growth under microaerophilic conditions at 37° C. Inhibition zone diameter ranging 10-20 mm was given a score of ^+, 20-30 mm as ^++ and that of >30 mm as ^+++, as obtained employing dose range of […]/disc. The detailed structural information of the molecules is provided under ‘Description of the Compounds’.
Methods and protocols for the determination of inhibition zone diameter are as stated under Experiment 1, and that of MIC values by microbroth dilution assay as in Experiment 3. ‘Nil’ means zone of inhibition below 10 mm.
The anti H. pylori activity of all 16 flavonoid molecules, 2 naturally isolated and 14 synthetic derivatives, was screened by disc diffusion sensitivity assay employing 2 clinical strains HP001 and HP002, and three standard strains ATCC® 700392, 43504 and 49503. A 0.5 mL inoculum (10^8 CFU/mL) for each bacterial strain tested was flooded on freshly prepared Brain Heart Infusion (BHI) agar plates supplemented with 7% FCS, 0.5% IsoVitalex and 0.0025% DENT® and the discs (5 mm diameter) containing different compounds or antibiotics (dissolved either in ethanol or DMSO) were placed on the agar surface. After incubation for 3 days in a microaerophilic atmosphere at 37° C., the diameter of the zone of inhibition was measured (Glupczynsky, 1996; McNulty et al., 2002).

[2] = system: H. pylori; assay: Anti H. pylori spectrum (MIC) by agar dilution method; format: cell-based, Helicobacter pylori; conditions: for MIC50 / MIC: Helicobacter pylori; for MIC50: MIC against 50% of the strains of the panel, read-out: MIC50
Description: MIC was determined using agar dilution assay following the CLSI® guidelines. Six clinical isolates and four standard strains were used for this study. Five microlitre of freshly grown 3-day old culture (˜1×10^8 CFU/mL) was streaked in plates containing 2-fold serial dilution of the compounds ranging […], and incubated under microaerophilic condition at 37° C. After 72 h, the plates were inspected visually for absence of growth to assess the MIC values. The experiment was performed in duplicates. MIC50 is defined as the dose (μg/ml) required for killing 50% of the strains.
Plates contained two-fold serial dilutions of the compounds ranging from […]. Five microlitres of 3-day old freshly grown H. pylori culture (^˜10^8 CFU/mL) was inoculated onto drug-containing BHI agar plates supplemented with 7% FCS, 0.5% IsoVitalex and 0.0025% DENT®, which were then incubated for 3 days under microaerophilic condition at 37° C.

[3] = 72 h, panel of 6 clinical isolates and 4 standard strains, read-out: MIC Range
[4] = clinical strain HP001, read-out: MIC
[5] = clinical strain HP002, read-out: MIC
[6] = clinical strain HP003, read-out: MIC
[7] = clinical strain HP004, read-out: MIC
[8] = clinical strain HP005, read-out: MIC
[9] = clinical strain HP006, read-out: MIC
[10] = standard strain 43504, read-out: MIC
[11] = standard strain 43629, read-out: MIC
[12] = standard strain 49503, read-out: MIC
[13] = standard strain 700392, read-out: MIC
[14] = panel of 6 clinical isolates and 4 standard strains

Row | SMILES | MIC [2, 3] [µg/mL] | MIC50 [2] [µg/mL] | MIC [2, 4] [µg/mL] | MIC [2, 5] [µg/mL] | MIC [2, 6] [µg/mL] | MIC [2, 7] [µg/mL] | MIC [2, 8] [µg/mL] | MIC [2, 9] [µg/mL] | MIC [2, 10] [µg/mL] | MIC [2, 11] [µg/mL] | MIC [2, 12] [µg/mL] | MIC [2, 13] [µg/mL] | Inhibition zone diameter (score) ([1]; ATCC standard strain 43504) | Inhibition zone diameter (score) ([1]; ATCC standard strain 49503) | Inhibition zone diameter (score) ([1]; ATCC standard strain 700392) | zone of inhibition at 100 µg/disc [1] [mm] | Inhibition zone diameter (score) ([1]; clinical strain HP001) | Inhibition zone diameter (score) ([1]; clinical strain HP002) | MIC50 ([2]; 72 h) [µg/mL] | further results
1 | CN1CCN(CCCCOc2cc(O)c3c(=O)cc(-c4ccccc4)oc3c2)CC1 [NMC-3, 5-Hydroxy-7-[4-(4-methyl-piperazin-1-yl)-butoxy]-2-phenyl-chromen-4-one] | 6.25 to 25 (≈ 15.3 to 61.2 µM) | 25 (≈ 61.2 µM) | 25 (≈ 61.2 µM) | 25 (≈ 61.2 µM) | < 12.5 | < 12.5 | < 12.5 | < 12.5 | 25 (≈ 61.2 µM) | 25 (≈ 61.2 µM) | 25 (≈ 61.2 µM) | 25 (≈ 61.2 µM) | + (Inhibition zone diameter ranging 10-20 mm was given a score of ^+) | + (Inhibition zone diameter ranging 10-20 mm was given a score of ^+) | + (Inhibition zone diameter ranging 10-20 mm was given a score of ^+) |  | + (Inhibition zone diameter ranging 10-20 mm was given a score of ^+) | ++ (20-30 mm as ^++) | ~25 (≈ 61.2 µM) | 
2 | O=c1cc(-c2ccccc2)oc2cc(OCCCCCCN3CCOCC3)cc(O)c12 [CHM-1, 5-Hydroxy-7-(6-morpholin-4-yl-hexyloxy)-2-phenyl-chromen-4-one] | 6.25 to 25 (≈ 14.8 to 59 µM) | 25 (≈ 59 µM) | 25 (≈ 59 µM) | 25 (≈ 59 µM) | < 12.5 | < 12.5 | < 12.5 | < 12.5 | 25 (≈ 59 µM) | 25 (≈ 59 µM) | 25 (≈ 59 µM) | 25 (≈ 59 µM) | Nil (‘Nil’ means zone of inhibition below 10 mm) | + (Inhibition zone diameter ranging 10-20 mm was given a score of ^+) | + (Inhibition zone diameter ranging 10-20 mm was given a score of ^+) |  | + (Inhibition zone diameter ranging 10-20 mm was given a score of ^+) | + (Inhibition zone diameter ranging 10-20 mm was given a score of ^+) | ~25 (≈ 59 µM) | 
3 | CC1(C)S[C@@H]2[C@H](NC(=O)[C@H](N)c3ccc(O)cc3)C(=O)N2[C@H]1C(=O)O [Amoxicillin, reference compound] | 0.016 to 0.0625 (≈ 0.0438 to 0.171 µM) | 0.032 (≈ 0.0876 µM) | 0.032 (≈ 0.0876 µM) | 0.032 (≈ 0.0876 µM) | 0.016 (≈ 0.0438 µM) | 0.016 (≈ 0.0438 µM) | 0.016 (≈ 0.0438 µM) | 0.016 (≈ 0.0438 µM) | 0.0625 (≈ 0.171 µM) | 0.032 (≈ 0.0876 µM) | 0.032 (≈ 0.0876 µM) | 0.0625 (≈ 0.171 µM) |  |  |  |  |  |  |  | inhibition zone diameter ([1]; clinical strains, 0.16 mg/disc): 10-16 mm; inhibition zone diameter ([1]; standard strains, 0.5-1.0 mg/disc): 13-15 mm
4 | CN(C)CCCCOc1cc(O)c2c(=O)cc(-c3ccccc3)oc2c1 [CHN-3, 7-(4-Dimethylamino-butoxy)-5-hydroxy-2-phenyl-chromen-4-one] | 6.25 to 25 (≈ 17.7 to 70.7 µM) | 25 (≈ 70.7 µM) | 25 (≈ 70.7 µM) | 25 (≈ 70.7 µM) | < 12.5 | < 12.5 | < 12.5 | < 12.5 | 25 (≈ 70.7 µM) | 25 (≈ 70.7 µM) | 25 (≈ 70.7 µM) | 25 (≈ 70.7 µM) | + (Inhibition zone diameter ranging 10-20 mm was given a score of ^+) | ++ (20-30 mm as ^++) | + (Inhibition zone diameter ranging 10-20 mm was given a score of ^+) | 20 to 30 | ++ (20-30 mm as ^++) | ++ (20-30 mm as ^++) | ~25 (≈ 70.7 µM) | 
5 | O=c1cc(-c2ccccc2)oc2cc(OCCCCN3CCOCC3)cc(O)c12 [CHM-3, 5-Hydroxy-7-(4-morpholin-4-yl-butoxy)-2-phenyl-chromen-4-one] | 50 to 100 (≈ 126 to 253 µM) | 50 (≈ 126 µM) | 50 (≈ 126 µM) | 50 (≈ 126 µM) | 100 (≈ 253 µM) | 100 (≈ 253 µM) | 100 (≈ 253 µM) | 100 (≈ 253 µM) | 50 (≈ 126 µM) | 100 (≈ 253 µM) | 50 (≈ 126 µM) | 50 (≈ 126 µM) | + (Inhibition zone diameter ranging 10-20 mm was given a score of ^+) | ++ (20-30 mm as ^++) | + (Inhibition zone diameter ranging 10-20 mm was given a score of ^+) | 20 to 30 | ++ (20-30 mm as ^++) | ++ (20-30 mm as ^++) | 50 (≈ 126 µM) | MIC Range [2, 14]: 50 to 100 µg/mL

More lines, main results first:

Row | MIC [2, 3] [µg/mL] | MIC50 [2] [µg/mL] | MIC [2, 4] [µg/mL] | MIC [2, 5] [µg/mL] | MIC [2, 6] [µg/mL] | MIC [2, 7] [µg/mL] | MIC [2, 8] [µg/mL] | MIC [2, 9] [µg/mL] | MIC [2, 10] [µg/mL] | MIC [2, 11] [µg/mL] | MIC [2, 12] [µg/mL] | MIC [2, 13] [µg/mL] | SMILES | Inhibition zone diameter (score) ([1]; ATCC standard strain 43504) | Inhibition zone diameter (score) ([1]; ATCC standard strain 49503) | Inhibition zone diameter (score) ([1]; ATCC standard strain 700392) | zone of inhibition at 100 µg/disc [1] [mm] | Inhibition zone diameter (score) ([1]; clinical strain HP001) | Inhibition zone diameter (score) ([1]; clinical strain HP002) | MIC50 ([2]; 72 h) [µg/mL] | further results
6 | 6.25 to 25 (≈ 18.4 to 73.7 µM) | 25 (≈ 73.7 µM) | 25 (≈ 73.7 µM) | 25 (≈ 73.7 µM) | 12.5 (≈ 36.8 µM) | 12.5 (≈ 36.8 µM) | 25 (≈ 73.7 µM) | 25 (≈ 73.7 µM) | 50 (≈ 147 µM) | 12.5 (≈ 36.8 µM) | 25 (≈ 73.7 µM) | 50 (≈ 147 µM) | CN(C)CCCOc1cc(O)c2c(=O)cc(-c3ccccc3)oc2c1 [CHN-2, 7-(3-Dimethylamino-propoxy)-5-hydroxy-2-phenyl-chromen-4-one] | ++ (20-30 mm as ^++) | ++ (20-30 mm as ^++) | + (Inhibition zone diameter ranging 10-20 mm was given a score of ^+) | 20 to 30 | ++ (20-30 mm as ^++) | ++ (20-30 mm as ^++) | ~25 (≈ 73.7 µM) | MIC Range [2, 14]: 12.5 to 50 µg/mL
7 |  | 50 (≈ 292 µM) |  | > 100 | 100 (≈ 584 µM) | 100 (≈ 584 µM) | 25 (≈ 146 µM) | 25 (≈ 146 µM) | 50 (≈ 292 µM) | 1.56 (≈ 9.11 µM) | 1.56 (≈ 9.11 µM) | 1.56 (≈ 9.11 µM) | Cc1ncc([N+](=O)[O-])n1CCO [Metronidazole, reference compound] |  |  |  |  |  |  |  | 
8 | 6.25 to 100 (≈ 16.5 to 264 µM) | 12.5 (≈ 32.9 µM) | 25 (≈ 65.9 µM) | 25 (≈ 65.9 µM) | < 12.5 | < 12.5 | < 12.5 | < 12.5 | 12.5 (≈ 32.9 µM) | 100 (≈ 264 µM) | 25 (≈ 65.9 µM) | 25 (≈ 65.9 µM) | O=c1cc(-c2ccccc2)oc2cc(OCCCN3CCCCC3)cc(O)c12 [CPP-2, 5-Hydroxy-2-phenyl-7-(3-piperidin-1-yl-propoxy)-chromen-4-one] | + (Inhibition zone diameter ranging 10-20 mm was given a score of ^+) | + (Inhibition zone diameter ranging 10-20 mm was given a score of ^+) | + (Inhibition zone diameter ranging 10-20 mm was given a score of ^+) |  | + (Inhibition zone diameter ranging 10-20 mm was given a score of ^+) | + (Inhibition zone diameter ranging 10-20 mm was given a score of ^+) | ~12.5 (≈ 32.9 µM) | 
